Like-named read-outs stand apart in the source and are kept apart here.
What was measured:
[1] = test system: T cells (PBL) on HUVEC where CDH15 or THBS1 were knock-down; assay: T cell transmigration assay using endothelial cells with siRNA knock-down of CDH15 or THBS1; type: cell-based, human; conditions: FIG. 4
Protocol: (§1) We measured the transmigration of T cells (PBL) after 6 minutes incubation at 37° C. on TNF-α and IFN-α stimulated endothelial cells (EC) using phase contrast microscopy. Cultured ECs were stimulated by cytokines for 24 hours. Subsequently, peripheral blood lymphocytes (PBL) were purified from the blood of healthy donors. PEPITEM was added to the PBL and these were incubated on the endothelial cells for 6 minutes. Non-adherent PBLs were removed by washing with cell free buffer. Video-microscope images of adherent cells were made from at least 5 fields of view for each EC monolayer. Adherent lymphocytes were either, i) phase bright (PB) and adherent to the apical surface of the endothelium, or ii) phase dark (PD) and migrated through the EC monolayer. The percentage of migrated cells was calculated by dividing the number of migrated cells by the total number of adherent lymphocytes (PB+PD) and multiplying by 100. To determine whether PEPITEM targets T-cells or endothelial cells, we pre-treated T-cells, endothelial cells or both T cells and endothelial cells with PEPITEM.
HUVEC were plated in a 12 well plate (87500 cells per well) for 24 hours or until about 80% confluence. The relevant siRNA were added at a final concentration of 50 nM to 83.75 μl or 82.5 μl if duplex in Optimem media (Life Technologies Invitrogen Compounds). […]

CDH15-FC protein = molecular target: T1, CDH15-FC protein (Homo sapiens, UniProt P55291); assay: Surface plasmon resonance (Biocore 3000), PEPITEM perfused over immobilised CDH15-FC; type: binding; conditions: PEPITEM perfused at increasing concentration; FIG. 5
T1 construct: Fc
Text: Gold-coated chips were used to analyse the interaction of CDH15 with PEPITEM in the Biocore 3000 instrument. CDH15-FC protein was immobilised on a Biocore chip. PEPITEM was perfused through the Biocore cell at increasing concentration. […] This provides further evidence that cadherin-15 is the PEPITEM receptor.

[2] = test system: T cells (PBL) on TNF-α and IFN-α stimulated endothelial cells (EC); type: cell-based; conditions: FIG. 1
Protocol: as §1

T1 sequence (P55291 with tags, fused parts or gaps limits assumed): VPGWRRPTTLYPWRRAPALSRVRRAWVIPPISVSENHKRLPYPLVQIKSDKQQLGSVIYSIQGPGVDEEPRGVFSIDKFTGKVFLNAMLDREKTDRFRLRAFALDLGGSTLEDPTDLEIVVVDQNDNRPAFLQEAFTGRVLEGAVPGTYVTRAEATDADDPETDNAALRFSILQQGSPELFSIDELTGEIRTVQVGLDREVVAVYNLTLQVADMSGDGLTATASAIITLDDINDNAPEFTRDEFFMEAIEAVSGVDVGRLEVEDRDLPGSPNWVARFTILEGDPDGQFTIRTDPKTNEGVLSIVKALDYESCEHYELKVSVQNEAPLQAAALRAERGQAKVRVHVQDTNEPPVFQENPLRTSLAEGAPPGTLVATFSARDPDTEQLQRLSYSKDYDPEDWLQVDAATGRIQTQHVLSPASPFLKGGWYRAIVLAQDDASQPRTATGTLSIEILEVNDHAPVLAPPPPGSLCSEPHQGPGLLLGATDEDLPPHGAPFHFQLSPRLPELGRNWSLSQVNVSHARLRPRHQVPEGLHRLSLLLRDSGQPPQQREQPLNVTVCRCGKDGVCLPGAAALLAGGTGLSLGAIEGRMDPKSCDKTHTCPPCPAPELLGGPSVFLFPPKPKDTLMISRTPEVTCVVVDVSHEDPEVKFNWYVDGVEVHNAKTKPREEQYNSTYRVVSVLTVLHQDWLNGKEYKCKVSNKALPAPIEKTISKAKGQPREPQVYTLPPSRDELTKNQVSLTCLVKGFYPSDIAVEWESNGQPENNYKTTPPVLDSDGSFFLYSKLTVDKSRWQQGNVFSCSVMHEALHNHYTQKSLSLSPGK

PEPITEM (SVTEQGAELSNEER; listed as Homo sapiens)
inhibitory effect on T cell transmigration ([1]; endothelial cells with CDH15 (cadherin-15) knockdown): released T-cells from the inhibitory effects | effect on T-cell trafficking ([1]; endothelial cells with THBS1 (thrombospondin-1) knockdown, presence of PEPITEM): no significant effect | binding to CDH15 protein (changes in SPR) (CDH15-FC protein): able to bind to the CDH15 protein | inhibition of T cell transmigration ([2]; T-cells alone pre-treated with PEPITEM): ineffective at inhibiting transmigration | inhibition of T cell transmigration ([2]; endothelial cells pre-treated with PEPITEM): transmigration is successfully inhibited

Reference: patent publication US20160152704A1, “CADHERIN 15 AGONISTS” (THE UNIVERSITY OF BIRMINGHAM, priority 2013, published 2016)
